Test results taken from ChEMBL document CHEMBL4417625, “Therapeutic compounds and methods” (2016).
Calls of active or inactive are those of the source. The calls are words filed in the database; no cut-off is given here.

What was measured:
[1] = target: T1, Regulator of G-protein signaling 17 (Homo sapiens) (UniProt Q9UGC6); assay: Inhibition of RGS17 (unknown origin) assessed as reduction in RGS17 interaction with 6x-his-tagged biotinylated Galpha-o interaction by Alpha-screen assay
T1 sequence (whole entry): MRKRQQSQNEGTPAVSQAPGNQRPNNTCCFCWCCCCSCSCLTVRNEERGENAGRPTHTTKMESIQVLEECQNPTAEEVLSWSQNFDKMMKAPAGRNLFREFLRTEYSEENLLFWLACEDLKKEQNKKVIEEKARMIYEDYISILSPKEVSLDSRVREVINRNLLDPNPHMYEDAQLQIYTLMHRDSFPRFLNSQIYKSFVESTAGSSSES

[2] = target: T1, Regulator of G-protein signaling 17 (Homo sapiens); assay: Binding affinity to RGS17 (unknown origin) assessed as shifting of protein melting temperature by Sypro-orange dye based differential scanning fluorimetry
[3] = target: T1, Regulator of G-protein signaling 17 (Homo sapiens); assay: Inhibition of RGS17 (unknown origin) assessed as reduction in RGS17 interaction with 6x-his-tagged biotinylated Galpha-o interaction at 100 uM followed by 3 times drug wash out with ASB buffer by Alpha-screen assay
[4] = target: T1, Regulator of G-protein signaling 17 (Homo sapiens); assay: Inhibition of RGS17 (unknown origin) assessed as reduction in RGS17 interaction with 6x-his-tagged biotinylated Galpha-o interaction at 100 uM by Alpha-screen assay
[5] = target: T1, Regulator of G-protein signaling 17 (Homo sapiens); assay: Covalent binding affinity to N-terminal deficient RGS17 (unknown origin) assessed as covalent protein-compound adduct formation at 50 uM incubated for 1 hr by MALDI-TOF mass spectrometry
[6] = target: T1, Regulator of G-protein signaling 17 (Homo sapiens); assay: Inhibition of cell membrane translocation of N-terminal GFP tagged full length RGS17 (unknown origin) expressed in HEK293T cells co-expressing Galpha-o at 100 uM incubated for 10 mins by confocal microscopy; format: cell-based
[7] = target: T1, Regulator of G-protein signaling 17 (Homo sapiens); assay: Inhibition of cell membrane translocation of N-terminal GFP tagged and N-terminal deficient RGS17 (unknown origin) expressed in HEK293T cells co-expressing Galpha-o assessed as induction of delocalization of RGS17deltaN to cytoplasm at 100 uM incubated for 10 mins by confocal microscopy; format: cell-based
[8] = target: T1, Regulator of G-protein signaling 17 (Homo sapiens); assay: Inhibition of cell membrane translocation of N-terminal GFP tagged and N-terminal deficient RGS17 (unknown origin) expressed in HEK293T cells co-expressing Galpha-o assessed as induction of delocalization of RGS17deltaN to cytoplasm at 10 uM incubated for 10 mins by confocal microscopy; format: cell-based
[9] = target: Guanine nucleotide-binding protein G(o) subunit alpha (Homo sapiens) (UniProt P09471); assay: Binding affinity to Galpha-o (unknown origin) assessed as shifting of protein melting temperature by Sypro-orange dye based differential scanning fluorimetry
Chain of Guanine nucleotide-binding protein G(o) subunit alpha (Homo sapiens) (P09471 2-354 limits assumed): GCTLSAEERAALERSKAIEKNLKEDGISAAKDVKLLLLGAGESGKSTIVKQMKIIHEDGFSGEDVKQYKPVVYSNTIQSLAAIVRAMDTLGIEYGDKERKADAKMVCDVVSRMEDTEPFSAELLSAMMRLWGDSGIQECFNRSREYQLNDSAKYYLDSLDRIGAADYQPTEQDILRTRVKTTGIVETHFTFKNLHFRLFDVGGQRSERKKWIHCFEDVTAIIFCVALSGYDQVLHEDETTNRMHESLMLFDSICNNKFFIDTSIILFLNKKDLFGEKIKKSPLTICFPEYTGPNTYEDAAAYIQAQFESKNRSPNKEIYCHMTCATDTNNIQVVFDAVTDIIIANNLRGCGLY

HEK-293T = assay: Cytotoxicity in HEK293T cells co-expressing Galpha-o at 100 uM incubated for 10 mins; format: cell-based; conditions: human

For C[n+]1cc2c3c(ccc2c2ccc4cc5c(cc4c21)OCO5)OCO3, the inhibition [1] was “Dose-dependent effect”, the ΔTm [2] was 2.1 °C and the inhibition [3] was “Active”. The inhibition [4] was “inactive”, the Activity [5] was “inactive” and the inhibition [6] was “inactive”. For the same compound, the inhibition [7] was “Active” and the inhibition [8] was “Active”.

Cc1ccc(-n2sc(=O)n(Cc3ccc(F)cc3)c2=O)cc1 was tested, and the inhibition [7] was “inactive”.

In the case of CC(C)=CCC[C@]1(C)C=Cc2c(O)c3c(c(CC=C(C)C)c2O1)O[C@]12C(=C[C@@H]4C[C@H]1C(C)(C)O[C@@]2(C/C=C(/C)C(=O)O)C4=O)C3=O [GAMBOGIC ACID], the inhibition [1] is reported as “Dose-dependent effect”, the Activity [2] is reported as “Active” and the Activity [9] is reported as “Active”. The inhibition [3] was “Active”, the inhibition [4] was “inactive” and the Activity [5] was “inactive”. The inhibition [7] was “inactive” and the Activity (HEK-293T) was “Toxic”.

In the case of CC1=C(O)C(=O)C=C2C1=CC=C1[C@@]2(C)CC[C@@]2(C)[C@@H]3C[C@](C)(C(=O)O)CC[C@]3(C)CC[C@]12C, the inhibition [1] is reported as “Dose-dependent effect”, the ΔTm [2] is reported as 1.4 °C and the inhibition [3] is reported as “Active”. The inhibition [4] was “inactive”, the Activity [5] was “inactive” and the inhibition [7] was “Active”. The inhibition [8] was “Active”.

For O=c1c(-c2cc(O)c(O)c(O)c2)coc2cc(O)c(O)c(O)c12, the inhibition [1] was “Dose-dependent effect”, the ΔTm [2] was 1 °C and the inhibition [3] was “Active”. For the same compound, the inhibition [4] was “inactive”, the Activity [5] was “inactive” and the inhibition [7] was “Active”. The inhibition [8] was “Active”.
